# Laboratory results from patent US20080064027A1, “TEL/Etv6-mediated inhibition of cell proliferation” (priority 2002, published 2008).
# Where two headings read alike, the source gives them in different places.
# What was measured:
# [1] = tested on: Stat3 transcriptional activity; test: APRE-driven luciferase reporter assay; type: cell-based; settings: for Relative Luciferase Activity: 24 hours, control = 1; for Stat3-dependent transcription of luciferase, increase over control: Stat3-ER-expressing A375, without TEL siRNA
# From the text: Luciferase assays are used to verify that the Stat3-ER construct is transcriptionally active. For this purpose, a luciferase reporter gene driven by the acute-phase response element (APRE) of the alpha 2-macroglobulin gene, a target for Stat1 and Stat3, was used.
# Cells (2×10^6 cells/6 well dish) were transfected with a reporter plasmid containing four copies of acute phase responsible element (APRE) upstream of the minimal junB promoter linked to the luciferase gene (T Hirano, EMBO Journal, 1996, 15, 3651-3658), together with the internal control plasmid pRL-SV40 from Promega (Madison, Wis.). Twenty-four hours after the transfection, cells were either left unstimulated or stimulated with OSM (PeproTechEC, London, United Kingdom), 4-hydroxytamoxifen (4HT; Sigma, St. Louis, Mo.) or a combination of 4HT/OSM for 24 hours. The preparation of cell extracts and measurement of luciferase activities were carried out using the Dual-Luciferase reporter assay system from Promega (Madison, Wis.) in an Autolumat LB 953 (Berthold Technologies, Wildbad, Germany). Changes in firefly luciferase activity were expressed relative to Renilla luciferase activity in the same sample.
# [2] = tested on: A375-Stat3-ER cells; settings: for effect on cell cycle profile: A375-Stat3-ER cells
# Description: In brief, cells were harvested at the indicated times (24, 48 and 72 h) washed three times with ice-cold PBS and resuspended in propidium iodide buffer (1 mM sodium citrate (pH 4.0), 1.5 mM NaCl, 5 mM EDTA, 5 mM EGTA, 0.1% NP40, 4 mg/ml propidium iodide and 80 mg/ml of RNase A). After 30 min incubation in the dark on ice, cell cycle distribution was measured with a Becton Dickinson FACS can flow cytometer.
# [3] = tested on: A375-Stat3-ER cells; settings: for reduction of A375-Stat3ER cell number: 3 days
# Description: In order to evaluate the role of Stat3 in A375 cell proliferation, A375-Stat3-ER cells were grown in the presence of OSM or 4HT and cell number determined over 3 days.
# [4] = 24 h, 4HT 1 microM, OSM 100 ng/ml, control 1.48
# [5] = 48 h, 4HT 1 microM, OSM 100 ng/ml, control 4.33
# [6] = 72 h, 4HT 1 microM, OSM 100 ng/ml, control 7.83
# [7] = 4HT 1 microM, Stat3-ER expressing A375 cells
compound,measurement,setting,value
oncostatin M [OSM],"activation of Stat3 transcriptional activity among IL-6 family members tested (IL-6, LIF)",[1]; A375 cells,most potent activator
same,Relative Luciferase Activity,"[1]; OSM 1 ng/ml, Stat3-ER expressing A375 cells",3
same,Relative Luciferase Activity,"[1]; OSM 10 ng/ml, Stat3-ER expressing A375 cells",9
same,Relative Luciferase Activity,"[1]; OSM 100 ng/ml, Stat3-ER expressing A375 cells",18
same,"Stat3-dependent transcription of luciferase, increase over control",[1],about 9 fold
same,effect on cell cycle profile,[2],little effect
same,Number of Cells,[3]; 0 h (start of treatment),0.8 ×10^5
same,reduction of A375-Stat3ER cell number,"[3]; 4HT 1 microM, OSM 100 ng/ml",about 40%
same,Number of Cells,[3]; [4],1.15 ×10^5
same,Number of Cells,[3]; [5],2.58 ×10^5
same,Number of Cells,[3]; [6],4.35 ×10^5
"CCC(=C(c1ccc(O)cc1)c1ccc(OCCN(C)C)cc1)c1ccccc1 [4HT, 4-hydroxytamoxifen, reference compound]",Relative Luciferase Activity,[1]; [7],29
same,stimulation of transcription from the APRE,[1]; [7],more efficiently than 100 ng/ml OSM
same,"Stat3-dependent transcription of luciferase, increase over control",[1],about 6 fold
same,Apoptotic cells,[2]; 24 h,<1%
same,G1 (change in percentage of cells),[2]; 24 h,+1%
same,G2/M (change in percentage of cells),[2]; 24 h,+2%
same,S (change in percentage of cells),[2]; 24 h,−3%
same,Apoptotic cells,[2]; 48 h,<1%
same,G2/M (change in percentage of cells),[2]; 48 h,−6%
same,S (change in percentage of cells),[2]; 48 h,+1%
same,G1 (change in percentage of cells),[2]; 72 h,−1%
same,G2/M (change in percentage of cells),[2]; 72 h,+1%
same,S (change in percentage of cells),[2]; 72 h,0%
same,Apoptotic cells,[2]; 72 h (3 days),<1%
same,effect on cell cycle profile,[2],only marginally affected
same,entry into S phase after release of cells synchronized in G1,[2]; A375 Stat3-ER cells,delayed relative to control cells
same,Number of Cells,[3]; 0 h (start of treatment),0.8 ×10^5
same,reduction of A375-Stat3ER cell number,"[3]; 4HT 1 microM, OSM 100 ng/ml",about 40%
same,Number of Cells,[3]; [4],1.49 ×10^5
same,Number of Cells,[3]; [5],3.60 ×10^5
same,Number of Cells,[3]; [6],4.44 ×10^5
